Data from patent US20140343017A1, “PYRROLE COMPOUND” (Kabushiki Kaisha Yakult Honsha, priority 2012, published 2014).
Structures can show the parent of a compound that is named as a salt. Where two headings read alike, the source gives them in different places.

How the values were obtained:
[1] = tested on: human lung cancer NCI-H460 xenograft tumor; assay: Antitumor effect on growth of human lung cancer NCI-H460 xenograft tumor (in vivo); design: species or system BALB/c nude mice; settings: Mus musculus, NCI-H460, iv, 528 h, tail vein, excised tumor weight Day 22, read-out: Inhibition Rate (%)
Description: Each compound of the present invention was studied for its in vivo antitumor effect using human lung cancer NCI-H460 cell-transplanted mice. An NCI-H460 cell suspension containing 2×10^6 cells was subcutaneously transplanted in an amount of 0.1 mL/mouse to the left groin areas of 6-week-old male BALB/c nude mice. The mice were further raised for approximately 1 week to 10 days and divided into groups (4 mice per group) having equal estimated tumor volumes at the point in time when the tumor size reached approximately 100 to 200 mm^3 (Day 1). Each administration sample was administered at a dose of 10 mL/kg into the tail vein of the mice. The dose and administration schedule of each compound were as described in Table 3. At Day 22, tumor was excised from each mouse. The tumor growth inhibition rate (IR: Inhibition Rate) was calculated from the weight of the excised tumor according to the expression shown below. The Dunnett's test was used in the significant difference test.
Tumor growth inhibition rate (Inhibition Rate, %)=(1−(Excised tumor weight of the administration group)/(Excised tumor weight of the control group))×100

[2] = tested on: human colorectal cancer HT-29 cells; assay: Inhibitory effect on growth of human cancer cells (in vitro), WST-8; type: cell-based; settings: 96 hours culture, read-out: IC50 (nM) HT29
Procedure, shortened: (§1)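 Cells seeded at 1000 cells/well in RPMI1640 with 10% FBS, compounds added after overnight culture, then 96 h exposure. Viability by WST-8, about 1 h at 37 °C, 5% CO2, absorbance read at 450 nm.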

[3] = tested on: human non-small cell lung cancer A549 cells; assay: as above; type: cell-based; settings: 96 hours culture
Procedure, shortened: as §1

[4] = tested on: human colorectal cancer HCT116 cells; assay: as above; type: cell-based; settings: 96 hours culture
Procedure, shortened: as §1

[5] = Days 1, 3, 5, 8, 10, 12, 15, 17, 19
[6] = Days 1, 3, 8, 10, 12, 15, 17, 19

| SMILES | IC50 ([2]; Homo sapiens, HT-29, 96 h) | IC50 ([3]; Homo sapiens, A549, 96 h) | IC50 ([4]; Homo sapiens, HCT-116, 96 h) | further results |
| --- | --- | --- | --- | --- |
| CCn1nnc(-c2[nH]c(C)c(C(=O)c3cccc(Br)c3)c2C)n1 [Compound 97, (3-bromophenyl)(5-(2-ethyl-2H-tetrazol-5-yl)-2,4-dimethyl-1H-pyrrol-3-yl)methanone] | 3.5 nM | 2.4 nM | 4.1 nM | inhibition in vivo at 30 mg/kg ([1]; 30 mg/kg, Days 1, 3, 5, 8, 10, 12, 15, 17, 19): 31.2% |
| COc1cccc(C(=O)c2c(C)[nH]c(-c3nnn(CCO)n3)c2C)c1 [Compound 107] | 16.1 nM | 54.9 nM | 27.4 nM | inhibition in vivo at 25 mg/kg [1, 5]: 32.6% |
| CCc1cnc(-c2[nH]c(C)c(C(=O)c3cccc(Br)c3)c2C)o1 [Compound 272, (3-bromophenyl) (5-(5-ethyloxazol-2-yl)-2,4-dimethyl-1H-pyrrol-3-yl)methanone] | 42 nM | 66.6 nM | 48.4 nM |  |
| Cc1c(-c2nnn(CCN)n2)[nH]c(CO)c1C(=O)c1cccc(Br)c1 [Compound 280, (5-(2-(2-aminoethyl)-2H-tetrazol-5-yl)-2-(hydroxymethyl)-4-methyl-1H-pyrrol-3-yl) (3-bromophenyl)methanone] | 194 nM | 250 nM | 250 nM |  |
| CNC(=O)c1[nH]c(-c2nnn(CCN)n2)c(C)c1C(=O)c1cccc(Br)c1 [Compound 282, 5-(2-(2-aminoethyl)-2H-tetrazol-5-yl)-3-(3-bromobenzoyl)-N,4-dimethyl-1H-pyrrole-2-carboxamide] | 315 nM | 525 nM | 754 nM |  |
| Cc1c(-c2nnn(CCO)n2)[nH]c(C(C)(C)O)c1C(=O)c1cccc(Br)c1 [Compound 285, (3-bromophenyl)(5-(2-(2-hydroxyethyl)-2H-tetrazol-5-yl)-2-(2-hydroxypropan-2-yl)-4-methyl-1H-pyrrol-3-yl)methanone] | 598 nM | 595 nM | 246 nM |  |
| Cc1[nH]c(-c2nnn(CCO)n2)c(Br)c1C(=O)c1cccc(Br)c1 [Compound 288, (4-bromo-5-(2-(2-hydroxyethyl)-2H-tetrazol-5-yl)-2-methyl-1H-pyrrol-3-yl)(3-bromophenyl)methanone] | 6.7 nM | 8.2 nM | 7.1 nM |  |
| Cc1[nH]c(-c2nnn(CCN)n2)c(Br)c1C(=O)c1cccc(Br)c1 [Compound 290, (5-(2-(2-aminoethyl)-2H-tetrazol-5-yl)-4-bromo-2-methyl-1H-pyrrol-3-yl)(3-bromophenyl)methanone] | 123 nM | 167 nM | 184 nM |  |
| CCn1nnc(-c2[nH]c(C)c(C(=O)c3cccc(OCCN)c3)c2C)n1 [Compound 296, (3-(2-aminoethoxy)phenyl)(5-(2-ethyl-2H-tetrazol-5-yl)-2,4-dimethyl-1H-pyrrol-3-yl)methanone hydrochloride] |  |  |  | IC50 ([2]; hydrochloride): 198 nM; IC50 ([3]; hydrochloride): 637 nM; IC50 ([4]; hydrochloride): 208 nM |
| Cc1[nH]c(-c2nnn(CCOC(=O)CN)n2)c(C)c1C(=O)c1cccc(Br)c1 [Compound 297, 2-(5-(4-(3-bromobenzoyl)-3,5-dimethyl-1H-pyrrol-2-yl)-2H-tetrazol-2-yl)ethyl 2-aminoacetate hydrochloride] |  |  |  | IC50 ([2]; hydrochloride): 8.2 nM; IC50 ([3]; hydrochloride): 12.2 nM; IC50 ([4]; hydrochloride): 7.3 nM |
| CCn1nnc(-c2[nH]c(C)c(C(=O)c3ccc(OCCN)c(Br)c3)c2C)n1 [Compound 302, (4-(2-aminoethoxy)-3-bromophenyl)(5-(2-ethyl-2H-tetrazol-5-yl)-2,4-dimethyl-1H-pyrrol-3-yl)methanone hydrochloride] |  |  |  | IC50 ([2]; hydrochloride): 33 nM; IC50 ([3]; hydrochloride): 47.4 nM; IC50 ([4]; hydrochloride): 35 nM |

Now from value to compound, other results behind:

| IC50 ([2]; Homo sapiens, HT-29, 96 h) | IC50 ([3]; Homo sapiens, A549, 96 h) | IC50 ([4]; Homo sapiens, HCT-116, 96 h) | SMILES | further results |
| --- | --- | --- | --- | --- |
| 1 nM | 9.2 nM | 2 nM | CCn1nnc(-c2[nH]c(C)c(C(=O)c3ccc(OC)c(Br)c3)c2C)n1 [Compound 109, (3-bromo-4-methoxyphenyl)(5-(2-ethyl-2H-tetrazol-5-yl)-2,4-dimethyl-1H-pyrrol-3-yl)methanone] | inhibition in vivo at 25 mg/kg [1, 6]: 29% |
| 1 nM | 5.1 nM | 1.1 nM | CCc1nnc(-c2[nH]c(C)c(C(=O)c3cccc(Br)c3)c2C)o1 [Compound 173, (3-bromophenyl)(5-(5-ethyl-1,3,4-oxadiazol-2-yl)-2,4-dimethyl-1H-pyrrol-3-yl)methanone] | inhibition in vivo at 10 mg/kg [1, 5]: 40.2% |
| 2.1 nM | 4.3 nM | 2.5 nM | CCc1nnc(-c2[nH]c(C)c(C(=O)c3cccc(OC)c3)c2C)o1 [Compound 193, (5-(5-ethyl-1,3,4-oxadiazol-2-yl)-2,4-dimethyl-1H-pyrrol-3-yl) (3-methoxyphenyl)methanone] | inhibition in vivo at 10 mg/kg [1, 6]: 33.9% |
| 1.1 nM | 2.1 nM | 1.9 nM | COc1ccc(Br)cc1C(=O)c1c(C)[nH]c(-c2nnc(C3CC3)o2)c1C [Compound 240, (5-bromo-2-methoxyphenyl)(5-(5-cyclopropyl-1,3,4-oxadiazol-2-yl)-2,4-dimethyl-1H-pyrrol-3-yl)methanone] | inhibition in vivo at 12.5 mg/kg ([1]; 12.5 mg/kg, Days 1, 3, 5, 8, 10, 12, 15, 17, 19): 33.2% |
| 32.5 nM | 36.5 nM | 53.8 nM | COc1ccc(C(=O)c2c(C=O)[nH]c(-c3nnc(C4CC4)o3)c2C)cc1Br [Compound 263, 3-(3-bromo-4-methoxybenzoyl)-5-(5-cyclopropyl-1,3,4-oxadiazol-2-yl)-4-methyl-1H-pyrrole-2-carboaldehyde] | inhibition in vivo at 50 mg/kg ([1]; 50 mg/kg, Days 1, 3, 5, 8, 10, 12, 15, 17, 19): 59.6% |
| 2.7 nM | 4.7 nM | 1.6 nM | COc1ccc(C(=O)c2c(CO)[nH]c(-c3nnc(C4CC4)o3)c2C)cc1Br [Compound 266, (3-bromo-4-methoxyphenyl)(5-(5-cyclopropyl-1,3,4-oxadiazol-2-yl)-2-(hydroxymethyl)-4-methyl-1H-pyrrol-3-yl)methanone] | inhibition in vivo at 20 mg/kg [1, 5]: 39.4% |
| 10.7 nM | 13 nM | 39 nM | COc1ccc(C(=O)c2c(C(F)F)[nH]c(-c3nnc(C4CC4)o3)c2C)cc1Br [Compound 267, (3-bromo-4-methoxyphenyl) (5-(5-cyclopropyl-1,3,4-oxadiazol-2-yl)-2-(difluoromethyl)-4-methyl-1H-pyrrol-3-yl)methanone] | inhibition in vivo at 20 mg/kg [1, 5]: 35.6% |
| 5.2 nM | 4.1 nM | 2.5 nM | COc1ccc(C(=O)c2c(C(C)O)[nH]c(-c3nnc(C4CC4)o3)c2C)cc1Br (stereo not shown) [Compound 268, (3-bromo-4-methoxyphenyl)(5-(5-cyclopropyl-1,3,4-oxadiazol-2-yl)-2-(1-hydroxyethyl)-4-methyl-1H-pyrrol-3-yl)methanone] | inhibition in vivo at 20 mg/kg [1, 5]: 41.2% |
| 44.1 nM | 92.9 nM | 50.4 nM | Cc1noc(-c2[nH]c(C)c(C(=O)c3cccc(Br)c3)c2C)n1 [Compound 271, (3-bromophenyl) (2,4-dimethyl-5-(3-methyl-1,2,4-oxadiazol-5-yl)-1H-pyrrol-3-yl)methanone] |  |
| 460 nM | 509 nM | 957 nM | CNC(=O)c1[nH]c(-c2nnn(CCOC(C)=O)n2)c(C)c1C(=O)c1ccc(OC)c(Br)c1 [Compound 295, 2-(5-(4-(3-bromo-4-methoxybenzoyl)-3-methyl-5-(methylcarbamoyl)-1H-pyrrol-2-yl)-2H-tetrazol-2-yl)ethyl acetate] |  |
